Reference: the CheMixHub viscosity set
± gives the uncertainty stated by the source.

Experiment: xn = mol fraction of the nth substance listed

CC(=O)CC(C)C + CC(C)=O
298.15 K, 101 kPa
Details	viscosity [mPa·s]
x2 = 0.0872	0.5206 ± 0.005
x2 = 0.2689	0.474 ± 0.0047
x2 = 0.3526	0.4524 ± 0.0045
x2 = 0.359	0.45 ± 0.0045
x2 = 0.5077	0.4139 ± 0.0043
x2 = 0.7067	0.366 ± 0.0039
x2 = 0.7731	0.3515 ± 0.0038
x2 = 0.8344	0.3373 ± 0.0037
x2 = 0.835	0.3362 ± 0.0037
x2 = 0.9323	0.3141 ± 0.0036

O=C1CCCCC1 + CC(C)CC(C)(C)C
viscosity [mPa·s]
Details	293.15 K	298.15 K	303.15 K	308.15 K	313.15 K
101 kPa, x1 = 0.0911	0.5562 ± 0.0041	0.5245 ± 0.0039	0.497 ± 0.0037	0.4702 ± 0.0036	0.4465 ± 0.0034
101 kPa, x1 = 0.127	–	0.551 ± 0.01	–	–	–
101 kPa, x1 = 0.1761	0.6094 ± 0.0045	0.5717 ± 0.0042	0.5392 ± 0.004	0.5101 ± 0.0039	0.4831 ± 0.0037
101 kPa, x1 = 0.1855	–	0.575 ± 0.011	–	–	–
101 kPa, x1 = 0.3071	–	0.643 ± 0.012	–	–	–
101 kPa, x1 = 0.3304	0.7148 ± 0.0052	0.6685 ± 0.0049	0.6303 ± 0.0047	0.5925 ± 0.0045	0.5593 ± 0.0042
101 kPa, x1 = 0.4005	0.7809 ± 0.0057	0.729 ± 0.0054	0.6869 ± 0.0051	0.643 ± 0.0048	0.6047 ± 0.0046
101 kPa, x1 = 0.4354	–	0.741 ± 0.013	–	–	–
101 kPa, x1 = 0.5171	–	0.836 ± 0.014	–	–	–
101 kPa, x1 = 0.5288	0.9379 ± 0.0069	0.8709 ± 0.0064	0.8135 ± 0.0061	0.7598 ± 0.0057	0.7134 ± 0.0054
101 kPa, x1 = 0.5877	1.037 ± 0.0076	0.9596 ± 0.0071	0.8935 ± 0.0067	0.8326 ± 0.0063	0.7791 ± 0.0059
101 kPa, x1 = 0.6149	–	0.969 ± 0.016	–	–	–
101 kPa, x1 = 0.6961	1.231 ± 0.0091	1.132 ± 0.0085	1.046 ± 0.0079	0.969 ± 0.0073	0.9139 ± 0.0069
101 kPa, x1 = 0.7054	–	1.114 ± 0.019	–	–	–
101 kPa, x1 = 0.7937	1.479 ± 0.011	1.353 ± 0.01	1.248 ± 0.0094	1.152 ± 0.0088	1.07 ± 0.0082
101 kPa, x1 = 0.7982	–	1.317 ± 0.022	–	–	–
101 kPa, x1 = 0.8836	–	1.526 ± 0.025	–	–	–
101 kPa, x1 = 0.9232	1.947 ± 0.015	1.771 ± 0.013	1.628 ± 0.012	1.49 ± 0.011	1.368 ± 0.01
101.33 kPa, x1 = 0.103	–	0.514 ± 0.004	0.485 ± 0.004	0.458 ± 0.004	–
101.33 kPa, x1 = 0.2023	–	0.563 ± 0.004	0.53 ± 0.004	0.501 ± 0.004	–
101.33 kPa, x1 = 0.3	–	0.626 ± 0.005	0.589 ± 0.004	0.556 ± 0.004	–
101.33 kPa, x1 = 0.4044	–	0.717 ± 0.005	0.667 ± 0.005	0.623 ± 0.005	–
101.33 kPa, x1 = 0.5041	–	0.808 ± 0.006	0.751 ± 0.005	0.702 ± 0.005	–
101.33 kPa, x1 = 0.6035	–	0.932 ± 0.007	0.865 ± 0.006	0.805 ± 0.006	–
101.33 kPa, x1 = 0.7029	–	1.104 ± 0.008	1.016 ± 0.007	0.953 ± 0.006	–
101.33 kPa, x1 = 0.8014	–	1.309 ± 0.009	1.199 ± 0.008	1.106 ± 0.007	–
101.33 kPa, x1 = 0.9008	–	1.58 ± 0.013	1.44 ± 0.01	1.322 ± 0.009	–
